Results published in patent US9549921B2, “Heterocyclic compounds and methods of use thereof for the treatment of hepatitis C” (priority 2014, dated 2017).
Like-named read-outs stand apart in the source and are kept apart here.

Legend:
HCV replicon genotype 1b = assay: HCV replicon assay, genotype 1b (cell ELISA for NS3/4A); format: cell-based, hepatitis C virus
Experimental: (§1) The HCV NS5B inhibitory activity of the present compounds may be tested using assays known in the art. The HCV NS5B polymerase inhibitors described herein have activities in a genotype 1b replicon assay as described in the Examples. The assay is performed by incubating a replicon harboring cell-line in the presence of inhibitor for a set period of time and measuring the effect of the inhibitor on HCV replicon replication either directly by quantifying replicon RNA level, or indirectly by measuring enzymatic activity of a co-encoded reporter enzyme such as luciferase or β-lactamase. By performing a series of such measurements at different inhibitor concentrations, the effective inhibitory concentration of the inhibitor (EC50 or EC90) is determined. See Jan M. Vrolijk et al., A replicons-based bioassay for the measurement of interferons in patients with chronic hepatitis C, 110 J. VIROLOGICAL METHODS 201 (2003). Such assays may also be run in an automated format for high through-put screening. See Paul Zuck et al., A cell-based β-lactamase reporter gene assay for the identification of inhibitors of hepatitis C virus replication, 334 ANALYTICAL BIOCHEMISTRY 344 (2004).
(§2) Measurement of inhibition by compounds was performed using the HCV replicon system. Several different replicons encoding different HCV genotypes or mutations were used. In addition, potency measurements were made using different formats of the replicon assay, including different ways of measurements and different plating formats. See Jan M. Vrolijk et al., A replicons-based bioassay for the measurement of interferons in patients with chronic hepatitis C, 110 J. VIROLOGICAL METHODS 201 (2003); Steven S. Carroll et al., Inhibition of Hepatitis C Virus RNA Replication by 2′-Modified Nucleoside Analogs, 278(14) J. BIOLOGICAL CHEMISTRY 11979 (2003). However, the underlying principles are common to all of these determinations, and are outlined below.
(§3) Stable neomycin phosphotransferase encoding replicons-harboring cell lines were used, so all cell lines were maintained under G418 selection prior to the assay. Potency was deteremined using a cell ELISA assay with an antibody to the replicons encoded NS3/4a protease. See Caterina Trozzi et al., In Vitro Selection and Characterization of Hepatitis C Virus Serine Protease Variants Resistant to an Active-Site Peptide Inhibitor, 77(6) J. Virol. 3669 (2003). To initiate an assay, replicon cells were plated in the presence of a dilution series of test compound in the absence of G418. Typically, the assays were performed in a 96-well plate formate for manual operation, or a 384-well plate format for automated assay. Replicon cells and compound were incubated for 96 hours. At the end of the assay, cells were washed free of media and compound, and the cells were then lysed. RNA was quantified indirectly through detection of replicon-encoded NS3/4A protein levels, through an ELISA-based assay with an antibody specific for NS3/4A. IC50 determinations were calculated as a percentage of a DMSO control by fitting the data to a four-parameter fit function and the data obtained is provided in the table below.
(§4) Data for selected compounds of the present invention was obtained for genotypes 1a and 1b using this method and is provided in the table below: […]

HCV replicon genotype 1a = assay: HCV replicon assay, genotype 1a (cell ELISA for NS3/4A); format: cell-based, hepatitis C virus
Experimental: as §1, §2, §3, §4

[1] = Hepatitis C virus, 96 h, read-out: 1b IC50 (nM), HCV genotype 1b replicon cells, 96 hours incubation, NS3/4A ELISA readout, % of DMSO control
[2] = Hepatitis C virus, 96 h, read-out: 1a IC50 (nM), HCV genotype 1a replicon cells, 96 hours incubation, NS3/4A ELISA readout, % of DMSO control
[3] = read-out: 1b IC50, HCV genotype 1b replicon cells, 96 hours incubation, NS3/4A ELISA readout, % of DMSO control
[4] = read-out: 1a IC50, HCV genotype 1a replicon cells, 96 hours incubation, NS3/4A ELISA readout, % of DMSO control

| Structure (SMILES) | IC50 (HCV replicon genotype 1b; [1]) | IC50 (HCV replicon genotype 1a; [2]) | IC50 (HCV replicon genotype 1b; [3]) | IC50 (HCV replicon genotype 1a; [4]) |
| --- | --- | --- | --- | --- |
| CNC(=O)c1c(-c2ccc(F)cc2)oc2cc(N(C)S(C)(=O)=O)c([C@H]3CN(C(=O)c4cc5cccc(F)c5[nH]4)CCO3)cc12 (single isomer, unassigned) [Example 6, 5-(4-(7-fluoro-1H-indole-2-carbonyl)morpholin-2-yl)-2-(4-fluorophenyl)-N-methyl-6-(N-methylmethylsulfonamido)benzofuran-3-carboxamide] | 17.4 nM | 11.1 nM |  |  |
| CNC(=O)c1c(-c2ccc(F)cc2)oc2cc(N(C)S(C)(=O)=O)c([C@H]3CN(C(=O)c4cc5cccc(F)c5[nH]4)CCO3)cc12 (single isomer, unassigned) [Example 7, 5-(4-(7-fluoro-1H-indole-2-carbonyl)morpholin-2-yl)-2-(4-fluorophenyl)-N-methyl-6-(N-methylmethylsulfonamido)benzofuran-3-carboxamide] |  |  | 11.6 nM | 5.79 nM |
| CNC(=O)c1c(-c2ccc(F)cc2)oc2cc(N(C)S(C)(=O)=O)c([C@H]3CN(C(=O)c4cc5c(F)cccc5n4C)CCO3)cc12 (single isomer, unassigned) [Example 8, 5-(4-(4-fluoro-1-methyl-1H-indole-2-carbonyl)morpholin-2-yl)-2-(4-fluorophenyl)-N-methyl-6-(N-methylmethylsulfonamido)benzofuran-3-carboxamide] | 36.9 nM | 28.2 nM |  |  |
| CNC(=O)c1c(-c2ccc(F)cc2)oc2cc(N(C)S(C)(=O)=O)c([C@H]3CN(C(=O)c4cc5c(F)cccc5n4C)CCO3)cc12 (single isomer, unassigned) [Example 9, 5-(4-(4-fluoro-1-methyl-1H-indole-2-carbonyl)morpholin-2-yl)-2-(4-fluorophenyl)-N-methyl-6-(N-methylmethylsulfonamido)benzofuran-3-carboxamide] |  |  | 67.8 nM | 54 nM |
| CNC(=O)c1c(-c2ccc(F)cc2)oc2cc(N(C)S(C)(=O)=O)c([C@H]3CN(c4nc5ccccc5o4)CCO3)cc12 (single isomer, unassigned) [Example 10, 5-(4-(benzo[d]oxazol-2-yl)morpholin-2-yl)-2-(4-fluorophenyl)-N-methyl-6-(N-methylmethylsulfonamido)benzofuran-3-carboxamide] | 26.6 nM | 16 nM |  |  |
| CNC(=O)c1c(-c2ccc(F)cc2)oc2cc(N(C)S(C)(=O)=O)c([C@H]3CN(c4nc5ccccc5o4)CCO3)cc12 (single isomer, unassigned) [Example 11, 5-(4-(benzo[d]oxazol-2-yl)morpholin-2-yl)-2-(4-fluorophenyl)-N-methyl-6-(N-methylmethylsulfonamido)benzofuran-3-carboxamide] |  |  | 17.2 nM | 21.4 nM |
| CNC(=O)c1c(-c2ccc(F)cc2)oc2cc(N(C)S(C)(=O)=O)c([C@@H]3CCN(C(=O)c4cc5c(F)cccc5n4C)C3)cc12 (single isomer, unassigned) [Example 14, 5-(1-(4-fluoro-1-methyl-1H-indole-2-carbonyl)pyrrolidin-3-yl)-2-(4-fluorophenyl)-N-methyl-6-(N-methylmethylsulfonamido)benzofuran-3-carboxamide] |  |  | 2.77 nM | 25.9 nM |
| CNC(=O)c1c(-c2ccc(F)cc2)oc2cc(N(C)S(C)(=O)=O)c([C@@H]3CCN(C(=O)c4cc5c(F)cccc5n4C)C3)cc12 (single isomer, unassigned) [Example 15, 5-(1-(4-fluoro-1-methyl-1H-indole-2-carbonyl)pyrrolidin-3-yl)-2-(4-fluorophenyl)-N-methyl-6-(N-methylmethylsulfonamido)benzofuran-3-carboxamide] |  |  | 11.2 nM | 125 nM |
| CNC(=O)c1c(-c2ccc(F)cc2)oc2cc(N(C)S(C)(=O)=O)c([C@@H]3CCCN(C(=O)Cc4ccc(F)cc4)C3)cc12 (single isomer, unassigned) [Example 17, 2-(4-fluorophenyl)-5-(1-(2-(4-fluorophenyl)acetyl)piperidin-3-yl)-N-methyl-6-(N-methylmethylsulfonamido)benzofuran-3-carboxamide] | 58.2 nM | 138 nM |  |  |
| CNC(=O)c1c(-c2ccc(F)cc2)oc2cc(N(C)S(C)(=O)=O)c([C@@H]3CCCN(C(=O)Cc4ccc(F)cc4)C3)cc12 (single isomer, unassigned) [Example 18, 2-(4-fluorophenyl)-5-(1-(2-(4-fluorophenyl)acetyl)piperidin-3-yl)-N-methyl-6-(N-methylmethylsulfonamido)benzofuran-3-carboxamide] |  |  | 72.2 nM | 188 nM |
| CNC(=O)c1c(-c2ccc(F)cc2)oc2cc(N(C)S(C)(=O)=O)c([C@@H]3CCCN(C(=O)c4ccc(F)cc4)C3)cc12 (single isomer, unassigned) [Example 19, 5-(1-(4-fluorobenzoyl)piperidin-3-yl)-2-(4-fluorophenyl)-N-methyl-6-(N-methylmethylsulfonamido)benzofuran-3-carboxamide] | 50.8 nM | 43.8 nM |  |  |
| CNC(=O)c1c(-c2ccc(F)cc2)oc2cc(N(C)S(C)(=O)=O)c([C@@H]3CCCN(C(=O)c4ccc(F)cc4)C3)cc12 (single isomer, unassigned) [Example 20, 5-(1-(4-fluorobenzoyl)piperidin-3-yl)-2-(4-fluorophenyl)-N-methyl-6-(N-methylmethylsulfonamido)benzofuran-3-carboxamide] |  |  | 46.9 nM | 48 nM |
| CNC(=O)c1c(-c2ccc(F)cc2)oc2cc(N(C)S(C)(=O)=O)c([C@@H]3CCCN(C(=O)c4cc5ccccc5[nH]4)C3)cc12 (single isomer, unassigned) [Example 21, 5-(1-(1H-indole-2-carbonyl)piperidin-3-yl)-2-(4-fluorophenyl)-N-methyl-6-(N-methylmethylsulfonamido)benzofuran-3-carboxamide] | 9.96 nM |  |  | 16.2 nM |
| CNC(=O)c1c(-c2ccc(F)cc2)oc2cc(N(C)S(C)(=O)=O)c([C@@H]3CCCN(C(=O)c4cc5ccccc5[nH]4)C3)cc12 (single isomer, unassigned) [Example 22, 5-(1-(1H-indole-2-carbonyl)piperidin-3-yl)-2-(4-fluorophenyl)-N-methyl-6-(N-methylmethylsulfonamido)benzofuran-3-carboxamide] |  |  | 18.8 nM | 40.8 nM |
| CNC(=O)c1c(-c2ccc(F)cc2)oc2cc(N(C)S(C)(=O)=O)c([C@@H]3CCCN(C(=O)c4nc5ccccc5n4C)C3)cc12 (single isomer, unassigned) [Example 23, 2-(4-fluorophenyl)-N-methyl-5-(1-(1-methyl-1H-benzo[d]imidazole-2-carbonyl)piperidin-3-yl)-6-(N-methylmethylsulfonamido)benzofuran-3-carboxamide] | 57.7 nM | 45.5 nM |  |  |
| CNC(=O)c1c(-c2ccc(F)cc2)oc2cc(N(C)S(C)(=O)=O)c([C@@H]3CCCN(C(=O)c4nc5ccccc5n4C)C3)cc12 (single isomer, unassigned) [Example 24, 2-(4-fluorophenyl)-N-methyl-5-(1-(1-methyl-1H-benzo[d]imidazole-2-carbonyl)piperidin-3-yl)-6-(N-methylmethylsulfonamido)benzofuran-3-carboxamide] |  |  | 40.5 nM | 32.7 nM |
| CNC(=O)c1c(-c2ccc(F)cc2)oc2cc(N(C)S(C)(=O)=O)c([C@@H]3CCCN(C(=O)c4cc5c(F)cccc5n4C)C3)cc12 (single isomer, unassigned) [Example 25, 5-(1-(4-fluoro-1-methyl-1H-indole-2-carbonyl)piperidin-3-yl)-2-(4-fluorophenyl)-N-methyl-6-(N-methylmethylsulfonamido)benzofuran-3-carboxamide] |  | 16.4 nM | 5.26 nM |  |
